From article PMC11253567, “Drug repurposing of pyrazolotriazine derivatives as potential anti-SARS-CoV-2 agents: in vitro and in silico studies” (BMC Chemistry, 2024)
Several values for one entry are separate records, joined by “and”; a condition that tells them apart may be missing. Identical values can stand only once. Like-named read-outs stand apart in the source and are kept apart here.

What was measured:
VERO-E6 cells [1] = conditions: cited from earlier work
[2] = tested on: SARS-CoV-2 (hCoV-19/Egypt/NRC-03/2020); conditions: cited from earlier work
[3] = tested on: SARS-CoV-2 (hCoV-19/Egypt/NRC-03/2020); assay: Inhibitory concentration 50 (IC50) determination, crystal violet CPE assay in VERO-E6 cells; conditions: for IC50: 50% reduction of virus-induced CPE
in vitro = conditions: African green monkey
VERO-E6 cells [4] = conditions: African green monkey
[5] = standard reference drug, SARS-CoV-2
[6] = Severe acute respiratory syndrome coronavirus 2, Vero C1008, SARS-CoV-2 in VERO-E6 cells

Row | Structure (SMILES) | IC50 ([3]; SARS-CoV-2 in VERO-E6 cells) | SI (CC50/IC50) [3] | IC50 [3, 6] | CC50 (in vitro) | also measured
1 | NC(=O)c1nc(F)c[nH]c1=O [Favipiravir] |  |  |  |  | CC50 (VERO-E6 cells [1]): 5260 µM; IC50 [2, 5]: 1380 µM; SI (CC50/IC50) ([2]; standard reference drug): 3.8
2 | CCN(CC)CCCC(C)Nc1ccnc2cc(Cl)ccc12 (stereo not drawn) [Chloroquine] |  |  |  |  | IC50 [2, 5]: 24.9 µM
3 | O=C(NCc1ccccc1)c1cnn2c(-c3ccccc3)nc(NCc3ccccc3)nc12 [Compound 8] | 55 µM | 7.2 | 55.1 µM | 400 µM | 
4 | CCOC(=O)c1cnn2c(-c3ccc(Cl)cc3)nc(N3CCCCC3)nc12 [Compound 5] |  | 31.2 | 2.8 µM | 87.5 µM | 
5 | CCOC(=O)c1cnn2c(-c3ccc(Br)cc3)nc(NCc3ccccc3)nc12 [Compound 2] | 11.2 µM | 39.7 | 11.2 µM | 445 µM | 
6 | CCOC(=O)c1cnn2c(-c3ccc(Cl)cc3)nc(NCc3ccccc3)nc12 [Compound 3] | 17.8 µM | 4.9 | 17.8 µM | 88.1 µM | CC50 (VERO-E6 cells [4]): 88 µM
7 | CCOC(=O)c1cnn2c(-c3ccccc3)nc(NCc3ccccc3)nc12 [Compound 1] | 2.4 µM | 190 and 192.8 | 2.45 µM | 463 µM | 
8 | CCOC(=O)c1cnn2c(-c3ccccc3)nc(N3CCCCC3)nc12 [Compound 4] | 61.8 µM | 5.9 | 61.9 µM | 366 µM | 
9 | CCOC(=O)c1cnn2c(-c3ccc(Br)cc3)nc(N3CCCC3)nc12 [Compound 7] |  | 10.6 | 26.1 µM | 279 µM | 
10 | CCOC(=O)c1cnn2c(-c3ccccc3)nc(NCCc3ccccc3)nc12 [Compound 6] |  | 2.5 |  |  | 
11 | O=C(NCCc1ccccc1)c1cnn2c(-c3ccccc3)nc(NCCc3ccccc3)nc12 [Compound 9] | 44.2 µM | 13.0 | 44.2 µM | 578 µM | 
12 | O=C(NCCc1ccccc1)c1cnn2c(-c3ccc(Cl)cc3)nc(NCCc3ccccc3)nc12 [Compound 10] | 60.7 µM | 5.6 | 60.8 µM | 343 µM | 
13 | CCN(CCO)CCCC(C)Nc1ccnc2cc(Cl)ccc12 (stereo not drawn) [Hydroxy-chloroquine, Hydroxychloroquine] |  |  |  |  | CC50 (VERO-E6 cells [1]; standard reference drug): 356 µM; IC50 [2, 5]: 36.9 µM; SI (CC50/IC50) ([2]; standard reference drug): 9.7
14 | CCC(CC)COC(=O)[C@H](C)N[P@](=O)(OC[C@H]1O[C@@](C#N)(c2ccc3c(N)ncnn23)[C@H](O)[C@@H]1O)Oc1ccccc1 [Remdesivir] |  |  |  |  | CC50 (VERO-E6 cells [1]; reference drug): 58.1 µM; IC50 ([2]; reference drug): 3.38 µM
